Experimental findings from ChEMBL document CHEMBL1201862, “PubChem BioAssay data set” (2004) are described below.

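48-hour exposure; five concentrations; linearly interpolated endpoints. Abbreviation: GI50, concentration required for 50% inhibition of growth.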 Activity calls are given as the source filed them. Rule as the data show it: active = GI50 up to about 1.1 µM and inactive = higher.

Among the test systems are SW-620; MDA-N; RXF 393; RPMI-8226; DU-145; SF-295; K562; U-251; KM12; CAKI-1; SNB-75; OVCAR-4; HCC 2998; SK-MEL-28; SR; HCT-15; OVCAR-8; COLO 205; MDA-MB-231; SNB-19.
Common to all, as to experiment: inhibition of tumour cell growth, NCI panel, 48 h

Take `NC(Cc1ncccn1)C(=O)O` (stereo not given): the GI50 in the test with SW-620, in the test on MDA-N, in the test with RXF 393, in the test on RPMI-8226, in the test with DU-145 and in the test with SF-295 was > 100 µM (inactive) throughout. In addition, the GI50 in the test with K562, with U-251, in the test on KM12, with CAKI-1, in the test on SNB-75 and in the test with OVCAR-4 was > 100 µM (inactive) each time. Moreover, the GI50 in the test with HCC 2998 was > 100 µM (inactive); with SK-MEL-28, > 100 µM (inactive); in the test on SR, > 100 µM (inactive); in the test with HCT-15, more than 100 µM; in the test with OVCAR-8, > 100 µM (inactive); in the test with COLO 205, > 100 µM (inactive). Besides, the GI50 with MDA-MB-231 and in the test with SNB-19 was > 100 µM (inactive) throughout.

On to `N#C/C(=C\c1ccc(F)cc1)c1nc(-c2cc3ccccc3oc2=O)cs1`, for which the GI50 in the test on SW-620 was 40.4 µM (inactive); in the test on MDA-N, 76.2 µM (inactive); with RXF 393, 18.6 µM (inactive); in the test with RPMI-8226, 87.9 µM (inactive); with DU-145 it was 38.6 µM (inactive); with SF-295, 14 µM (inactive). Also, the GI50 was > 100 µM (inactive) in the test on K562; 14.6 µM (inactive) with U-251; 59 µM (inactive) in the test on KM12; 53.6 µM (inactive) in the test with CAKI-1; 7.01 µM (inactive) in the test on SNB-75; 10.4 µM (inactive) with OVCAR-4. The GI50 in the test on HCC 2998 was 37.7 µM (inactive); in the test with SK-MEL-28, 44.7 µM (inactive); in the test with SR it was > 100 µM (inactive); in the test with HCT-15, 97.5 µM; in the test with OVCAR-8, 21.3 µM (inactive); in the test with COLO 205, > 100 µM (inactive). Further, the results for the GI50 in the test on MDA-MB-231 and with SNB-19 were 12.7 µM (inactive) and 11.8 µM (inactive), respectively.
